Test results: article PMC8277133, “Os(II)-Bridged Polyarginine Conjugates: The Additive Effects of Peptides in Promoting or Preventing Permeation in Cells and Multicellular Tumor Spheroids” (Inorganic Chemistry, 2021)
Where a SMILES comes first, the peptide text is derived from it. [ ]: non-standard residue; d: D form. The star is where a group is joined. X1 = O=C(c1ccc(-c2cc(-c3ccccn3)nc(-c3ccccn3)c2)cc1)*; Ahx = NCCCCCC(=O)O

Columns and labels:
[1] = tested on: HPAC spheroids; test: Confocal imaging of penetration into live HPAC multicellular tumor spheroids; format: cell-based, human; settings: for Spheroid penetration / accumulation: 100 μM, 48 h, confocal microscopy, no permeant
Description: The human pancreatic cancer cell line (HPAC) was cultured in Gibco Roswell Park Memorial Institute medium supplemented with 5% FBS at 37 °C with 5% CO2. HPAC cells were seeded at 2.5 × 10^3 cells/well of 96-well round-bottom plates pre-coated with poly-Hema (poly-2-hydroxyethyl methacrylate, Sigma). Cells were allowed to be compact and form 3D spheroid structures after 72 h.
Spheroids were treated with [Os-(R4)2]^10+ at 30 μM for 24 h and 100 μM for 24 and 48 h. Control spheroids were treated with the parent complex [Os(tpybenzCOOH)2]^2+ and [Os-(R8)2]^18+ at 100 μM for 48 h. Non-treated spheroids were also prepared as a negative control. Spheroids were co-stained with DAPI at 10 μM for 90 min. Each spheroid was collected individually and embedded in collagen in eight-well chamber slides, incubated for 90 min, and observed under confocal microscopy.
For imaging, HPAC spheroids were plated in collagen-treated eight-well chamber slides. HPAC spheroids were directly imaged from the eight-well chamber using a Leica TSP DMi8 confocal microscope (10× dry and 40× oil immersion objective). Z-scanning was used to acquire images across the z-axis of the spheroid sample. On average, 45–50 images were acquired at approximately 5 μm apart. 3D Z-stack images were used for spheroid reconstructions and 2D projection images are also reported. The Os(II) parent complex and bioconjugates were excited using a 490 nm white light laser, and the emission range was set to be between 650 and 800 nm (a false red color was used for the Os(II) channel). DAPI was excited at 405 nm, and emission was collected between 423 and 580 nm.

[2] = tested on: A549 cells; test: Confocal laser scanning microscopy uptake study in live A549 cells; format: cell-based; settings: CLSM; for Cellular uptake / membrane permeation: live A549 cells, 24 h, 37 °C
Description: (§1) Two cell lines were studied: an adherent mammalian cell line, Chinese hamster ovarian (CHO–K1), and a lung carcinoma cancer cell line (A549). Dulbecco’s modified Eagle’s medium (DMEM)/Hams F-12 was used for CHO cells and DMEM for A549 cells. Both media were supplemented with 10% FBS and 1% penicillin–streptomycin. The cells were grown at 37 °C with 5% CO2 and sub-cultured at 90% confluency.
(§2) Uptake studies were carried out for A549 and CHO cell lines. Cells were seeded at 1.5 × 10^5 cells in 35 mm glass-bottom culture dishes (Ibidi, Germany). Cells were allowed to grow for 24 h at 37 °C with 5% CO2. […] The dye/media solution was removed, and cells were washed twice with supplemented phosphate-buffered saline (PBS, 1.1 mM MgCl2 and 0.9 mM CaCl2). Cells were directly imaged using a Leica TSP DMi8 confocal microscope (63× oil immersion objective lens unless stated otherwise) with a heated stage at 37 °C.
(§3) [Os-(Rn)2]^x+ (n = 4 and 8; x = 10^+ and 18^+) was excited using a 490 nm white light laser, and the emission range was set to be between 650 and 800 nm. DRAQ7, a nuclear staining dye, was added (3 μM) to distinguish intact live cells from permeabilized/dead cells. The 633 nm laser was used to excite DRAQ7, and emission was collected between 635 and 750 nm. For co-localization studies, MitoTracker Deep Red (100 nM) and LysoTracker Green (50 nM) were used to selectively stain mitochondria and lysosomes, respectively. MitoTracker Deep Red was excited at 644 nm and emission was collected between 655 and 720 nm, and LysoTracker Green was excited at 504 nm and emission was collected at 511 nm.

[3] = tested on: cell membrane; settings: parent complex without peptide; as reported previously; cited from earlier work
Description: Uptake of the Os(II) bis-octaarginine conjugate was studied in live A549 lung carcinoma and a non-cancerous CHO cell line. […] The conjugate remained as impermeable to the cell membrane as the parent Os(II) complex at 30 μM/24 h and 100 μM/24 h (Figure S12).

[4] = tested on: CHO cells; test: Confocal laser scanning microscopy uptake study in live CHO cells; format: cell-based, Chinese hamster; settings: CLSM; for Cellular uptake / membrane permeation: live CHO cells, 24 h, 37 °C
Description: as §1, §2, §3

[5] = tested on: HPAC spheroids; test: 3D spheroid viability, Alamar Blue; format: cell-based, human; settings: 100 μM, 24 and 48 h, relative to untreated controls, n=2
Description: The 3D spheroid viability was evaluated using Alamar Blue. Briefly, 2.5 × 10^3 cells were seeded in each well of a 96-well round-bottom plate pre-coated with poly-Hema. The cells were allowed to grow and form spheroids for 72 h. The spheroids were then treated with [Os-(R4)2]^10+ at 100 μM for 24 and 48 h. The Alamar Blue reagent at a concentration of 10% was added to each well and incubated for 5 h at 37 °C. Fluorescence was measured at 535/590 excitation/emission wavelengths on a plate reader (Biotek) using Gen4 software. Background fluorescence was measured by using a blank consisting of medium only. Percentage viability was calculated relative to untreated controls.

[6] = tested on: A549 cells; test: Phototoxicity under continuous 490 nm irradiation with DRAQ7; format: cell-based; settings: A549 cells pretreated 30 μM/24 h, DRAQ7, continuous 490 nm irradiation 0.84 μW/cm^2, 3 h
Description: DRAQ7 was added to live A549 cells treated with [Os-(R4)2]^10+ (30 μM/24 h). A group of cells were selected for continuous irradiation using 490 nm excitation (0.84 μW/cm^2). Emission was collected between 650 and 800 nm for [Os-(R4)2]^10+. The 633 nm laser was used to excite DRAQ7, and emission was collected between 635 and 750 nm. This was repeated for an untreated control sample exposed to continuous irradiation and stained with DRAQ7.

[7] = tested on: CHO cells; test: DRAQ7 co-staining for damaged/dead cells, CHO; format: cell-based, Chinese hamster; settings: 30 μM, 24 h
Description: (§4) Uptake studies were carried out for A549 and CHO cell lines. Cells were seeded at 1.5 × 10^5 cells in 35 mm glass-bottom culture dishes (Ibidi, Germany). Cells were allowed to grow for 24 h at 37 °C with 5% CO2. The growth medium was removed, and a specific concentration of [Os-(Rn)2]^x+ (n = 4 and 8; x = 10^+ and 18^+) was added and allowed to incubate for 24 and 48 h at 37 °C with 5% CO2 in the dark. The dye/media solution was removed, and cells were washed twice with supplemented phosphate-buffered saline (PBS, 1.1 mM MgCl2 and 0.9 mM CaCl2). Cells were directly imaged using a Leica TSP DMi8 confocal microscope (63× oil immersion objective lens unless stated otherwise) with a heated stage at 37 °C.
as §3

[8] = tested on: A549 cells; test: DRAQ7 co-staining for damaged/dead cells, A549; format: cell-based
Description: as §4, §3

Row | Structure (SMILES) | Spheroid penetration / accumulation [1] | Cellular uptake / membrane permeation ([2]; 100 μM) | Cell membrane permeability [3] | Cellular uptake / membrane permeation ([4]; 100 μM) | Spheroid viability [5] | Staining at the center of the spheroid, at 72 ± 5 μm ([1]; 30 μM/24 h) | Spheroid penetration ([1]; 30 μM/24 h, 3D reconstruction depth coding) | Spheroid penetration ([1]; 100 μM/24 h) | Cell permeation at 4 °C ([2]; A549 cells, 4 °C, 30 μM/24 h) | Cellular uptake / membrane permeation ([2]; 30 μM, dark, exc 490 nm, em 650-800 nm) | Photo-induced toxicity [6] | Cellular damage by DRAQ7 co-staining [7] | Cell permeation ([4]; CHO cells, 30 μM/24 h) | Cellular uptake / membrane permeation ([4]; 30 μM, dark) | Cell viability by DRAQ7 co-staining ([8]; 30 μM, 24 h and 48 h) | Cytotoxicity by DRAQ7 co-staining ([8]; 100 μM, 48 h) | Cell death by DRAQ7 co-staining ([8]; 100 μM/24 h)
1 | O=C(O)c1ccc(-c2cc(-c3ccccn3)nc(-c3ccccn3)c2)cc1.O=C(O)c1ccc(-c2cc(-c3ccccn3)nc(-c3ccccn3)c2)cc1.[Os+2] [[Os(tpybenzCOOH)2]^2+, Os(II) [bis-(4′-(4-carboxyphenyl)-2,2′:6′,2″-terpyridine)]] | no spheroid penetration or accumulation was observed | completely impermeable | cell membrane impermeable | completely impermeable |  |  |  |  |  |  |  |  |  |  |  |  | 
2 | N=C(N)NCCC[C@@H](NC(=O)[C@@H](CCCNC(=N)N)NC(=O)[C@@H](CCCNC(=N)N)NC(=O)[C@@H](CCCNC(=N)N)NC(=O)CCCCCNC(=O)c1ccc(-c2cc(-c3ccccn3)nc(-c3ccccn3)c2)cc1)C(N)=O [[Os-(R4)2]^10+] ({X1-Ahx}-[dR][dR][dR][dR]-NH2) | throughout cell layers and deep into the spheroid core |  |  |  | no evidence of toxicity | not observed | spheroid penetration was evident | extensive probe penetration and distribution to the core of the spheroid | inhibited | rapidly and efficiently internalized | non-photocytotoxic | entry of DRAQ7 (blue) in several cell nuclei | inhibited | rapidly and efficiently internalized | remained viable | modest cytotoxic effects | no cell death was induced
